Results: US12508258B2, “Quinoline derivative for treating rheumatoid arthritis” (CHIA TAI TIANQING PHARMACEUTICAL GROUP CO., LTD., priority 2020, dated 2025)
Structures can show the parent of a compound that is named as a salt.

What was measured:
[1] = Rheumatoid arthritis CIA model, weight monitoring; type: in vivo; settings: Wistar CIA rats, oral gavage once daily 14 days, dexamethasone 0.1 mg/kg, FIG. 1; for weight of the rats, regain after treatment: anlotinib 10 mg/kg
Experimental: (§1) 15 SPF healthy male rats from Wistar with the weight of 160-180 g and purchased from Shanghai Institute of Planned Parenthood Research, with Certificate No. 20180006022473 in an SPF feeding environment.
(§2) Modeling group: on day 1 of the experiment, the primary immunization was performed. The animals in the modeling group were anesthetized with isoflurane. Four points were taken to inject the modeling agent on both sides of the spinal cord skin at the base of the tail of the rats. A total of 0.2 mL of CII/CFA molding emulsion was injected intradermally. On day 8 of the experiment, the second immunization was performed, and the operations were the same as those on day 1 of the experiment. Blank control group: equal volume of normal saline was injected.
(§3) After grouping, oral gavage administration was started according to the grouping requirements, and the administration volume was 10 mL/kg. The administration was carried out once daily for 14 days (from day 1 to day 14). On day 15, the animals were dissected after collection of relevant experimental data.
During the experiment, the weight of the rats in each group was measured once daily from the day of grouping and administration (day 1) to day 15.

[2] = system: rat rheumatoid arthritis model; assay: Rat rheumatoid arthritis CIA model, overall drug efficacy; type: in vivo; settings: Wistar CIA rats; anlotinib 10 mg/kg oral gavage once daily for 14 days
Experimental: as §1
15 rats were randomly divided into two groups according to the weight, blank control group (n=3) and modeling group (n=12).
as §2
The animals in the modeling group were divided into 3 groups according to the joint swelling degree and the joint scores: group-2 (n=4, model group), group-3 (n=4, positive control group), and group-4 (n=4, test drug group).
After grouping, oral gavage administration was started according to the grouping requirements, and the administration volume was 10 mL/kg. The administration was carried out once daily for 14 days (from day 1 to day 14). […]

CIA rats [3] = assay: CIA model rats, determination of the rat paw swelling degree; type: in vivo; settings: SD CIA rats; right hind paw thickness; 20 and 10 mg/kg
Experimental: (§4) After adaptive feeding of 80 SPF male SD rats with the weight of 140±10 g for 5 days, 10 male SD rats were randomly selected as a normal control group, and the rest were subjected to collagen-induced arthritis model modeling. The specific methods are as follows.
(§5) A solution of the bovine type II collagen (CII) in acetic acid (containing 2.0 mg·mL^−1 bovine CII) and an equal volume of complete Freund's adjuvant (CFA) were completely mixed, and the mixture was fully emulsified. The emulsion was added dropwise to water without diffusing as the degree, and finally the emulsion containing 1.0 mg·mL^−1 bovine CII was prepared. 0.2 mL of the emulsion was taken and injected intradermally into the dorsal and the base of the tail at four points (two points on the dorsal and two points on the base of the tail) for the primary immunization (d0). After day 7 (d7) of primary immunization, the emulsion was injected again as described above to boost the immunization. Then the arthritis index (AI) was scored on day 14 (d14). […]
Determination of the rat paw swelling degree: before the primary immunization (d0), every 7 d (d7, d14) after the primary immunization and every 4 d after treatment, the thickness of the right hind paw of the rats was measured with a vernier caliper at the same position. […]

[4] = system: rheumatoid arthritis CIA model rats; assay: Rheumatoid arthritis CIA model, hind limb joint lesion scoring; type: in vivo; settings: Wistar CIA rats, anlotinib 10 mg/kg, dexamethasone 0.1 mg/kg oral gavage once daily, FIG. 4
Experimental: as §1, §2
After modeling was completed, the animals were normally observed and housed. After the hind limb joints of the animals were diseased, the animals were grouped according to the joint swelling degree and the joint score, wherein the scoring criteria were as follows: • clinical diagnostic scoring criteria for joint soft tissue swelling and joint mobility:
as §3
During the experiment, hind limb ankle joints of the rats in each group were scored for joint soft tissue swelling and joint mobility on day 1, day 4, day 8, day 11 and day 15.

CIA rats [5] = assay: CIA model rats, ankle joint histopathology (HE staining, lesion observation and scoring); type: in vivo; settings: SD CIA rats; for joint lesions (histopathology) compared to model group: intragastric, once daily five days on/two days off, two weeks, formula I dihydrochloride 20 and 10 mg/kg, dexamethasone sodium phosphate 0.05 mg/kg
Experimental: as §4
A solution of the bovine type II collagen (CII) in acetic acid (containing 2.0 mg·mL^−1 bovine CII) and an equal volume of complete Freund's adjuvant (CFA) were completely mixed, and the mixture was fully emulsified. The emulsion was added dropwise to water without diffusing as the degree, and finally the emulsion containing 1.0 mg·mL^−1 bovine CII was prepared. 0.2 mL of the emulsion was taken and injected intradermally into the dorsal and the base of the tail at four points (two points on the dorsal and two points on the base of the tail) for the primary immunization (d0). After day 7 (d7) of primary immunization, the emulsion was injected again as described above to boost the immunization. Then the arthritis index (AI) was scored on day 14 (d14). The highest score of each rat was 16 points, and the arthritis induction was considered successful if there was at least 1 paw with AI score≥2.
The CIA rats successfully modeled were randomly divided into a drug medium-dose group, a drug low-dose group and a model group, with 10 rats in each group. The normal group and the model group were subjected to intragastric administration with 0.02 mL·g^−1 normal saline; the drug medium-dose group and the drug low-dose group were administered with the dihydrochloride salt of the compound of formula I at 20 mg/kg and 10 mg/kg, respectively, (the vehicle was normal saline). The positive drug group was subjected to intragastric administration with dexamethasone sodium phosphate with the dose of 0.05 mg/kg. The rats was administered once daily from Monday to Friday (i.e., consecutively five-day administration and then two-day interruption). The dosing period was two weeks.
After the animal blood collection was finished, ankle joints were fixed in 10% formalin. The ankle joints were subjected to decalcification by 10% acetic acid and then were subjected to routine paraffin embedding, slicing and HE staining. The slices were observed by pathology professionals, and then the damage degree of joint synovial tissue, joint bones and cartilage tissue was observed and scored for comparison.
Observation of lesions and scoring: 1. whether the joint synovial cells are proliferated or eroded (denatured, necrotic), and whether the inflammatory cells infiltrate or not; 2. whether the pannus is formed (composed of blood vessels and fibroblasts); 3. whether the bony erosion (joint bone and cartilage) or hyperplasia exists; 5. whether the joint cavity has stenosis, disappearance and other lesions. The observation indexes were classified into 3 grades according to the severity of the lesions, which were respectively recorded as: 1 point for slight, 2 points for moderate, and 3 points for severe. 0 points means substantially normal. All scores were accumulated to obtain a total score, and the average score (mean±SD) of each animal in each group was calculated, and the higher the score, the more severe the lesion.

[6] = system: rheumatoid arthritis CIA model rats; assay: Rheumatoid arthritis CIA model, hind limb joint weight determination; type: in vivo; settings: day 8; Wistar CIA rats; anlotinib 10 mg/kg, dexamethasone 0.1 mg/kg oral gavage once daily; FIG. 5
Experimental: as §1, §2, §3
On day 8, two rats in each group were dissected, and the weight of the hind limb joints was measured. The remaining animals were subjected to normal experiments according to the grouping schedule. On day 15, the remaining animals in each group were dissected, and the weight of the hind limb joints was measured.

[7] = system: human rheumatoid arthritis synovial cells; assay: MTT assay for the inhibition of human rheumatoid arthritis synovial cells; type: cell-based
Experimental: An MTT assay for the inhibition of human rheumatoid arthritis synovial cells using the dihydrochloride salt of the compound of formula I as the test drug: the trypsinized cell suspension was seeded in a 96-well plate at a volume of 100 μL per well, with 1×10^4 cells per well. The edges of the plate were wiped with sterile PBS. The plate was placed in a cell incubator and incubated at 37° C. with 5% CO2. After 24 h of incubation, the original culture solution in the wells was aspirated. Then 100 μL of culture solution with gradient concentration of drug was added to each well, and 6 concentrations were set, namely, 0 μM, 0.5 μM, 1 μM, 2 μM, 5 μM and 10 μM, respectively. The plate was placed in the incubator and incubated at 37° C. with 5% CO2. After 24 h and 48 h after dosing, 20 μL of MTS was added to each well. The plate was incubated at 37° C. for 1.5 h. The absorbance of each well at a wavelength of 540 nm was measured by a microplate reader, and the inhibition rate of cells in each group was calculated.
The calculation formula is as follows: cell inhibition rate/%=(1−[…])×100%

[8] = system: rheumatoid arthritis CIA model rats; assay: Rheumatoid arthritis CIA model, joints photographing; type: in vivo; settings: Wistar CIA rats; anlotinib 10 mg/kg, dexamethasone 0.1 mg/kg; FIGS. 6 and 7
Experimental: as §1, §2, §3
One rat in each group was selected, and the hind limb ankle joints thereof were photographed on day 4, day 8, day 11 and day 15.

interleukin-1β (IL-1β) = assay: CIA model rats, serum IL-1β by enzyme-linked immunosorbent assay; type: in vivo; settings: SD CIA rats; day 28; 20 and 10 mg/kg
Experimental: as §4, §5
(§6) After day 28 of the experiment, the blood was collected from the abdominal aorta of the rats in each group, and the serum was separated. The tumor necrosis factor-α (TNF-α) and the interleukin-1β (IL-1β) were detected by enzyme-linked immunosorbent assay, and the specific method was carried out according to the specifications of the kit. […]

[9] = system: rheumatoid arthritis CIA model rats; assay: Rheumatoid arthritis CIA model, hind limb joint size monitoring (vernier caliper); type: in vivo; settings: Wistar CIA rats, anlotinib 10 mg/kg; for joint swelling degree (ankle width and thickness) compared to model group: dexamethasone 0.1 mg/kg, FIGS. 2 and 3; for width of the hind limb ankle joints vs. model group / thickness of the hind limb ankle joints vs. model group: dexamethasone 0.1 mg/kg oral gavage once daily; for width of the hind limb ankle joints vs. model group: FIG. 2; for thickness of the hind limb ankle joints vs. model group: FIG. 3
Experimental: as §1, §2, §3
During the experiment, the width and thickness of the hind limb ankle joints of the rats in each group were measured with a vernier caliper on day 1, day 4, day 8, day 11 and day 15.

[10] = system: tumor necrosis factor-α (TNF-α); assay: CIA model rats, serum TNF-α by enzyme-linked immunosorbent assay; type: in vivo; settings: SD CIA rats; day 28; 20 and 10 mg/kg
Experimental: as §4, §5, §6

Compound | weight of the rats, regain after treatment [1] | lesion scores of the hind limb ankle joints vs. model group ([4]; day 8) | lesion scores of the hind limb ankle joints vs. model group ([4]; day 11) | lesion scores of the hind limb ankle joints vs. model group ([4]; day 15) | joint lesions (histopathology) compared to model group (CIA rats [5]) | weight of the hind limb joints vs. model group [6] | joint swelling degree on photographs compared to model group [8] | joint swelling degree (ankle width and thickness) compared to model group [9] | thickness of the hind limb ankle joints vs. model group ([9]; day 8) | width of the hind limb ankle joints vs. model group ([9]; day 15) | other results
COc1cc2c(Oc3ccc4[nH]c(C)cc4c3F)ccnc2cc1OCC1(N)CC1 [Anlotinib hydrochloride, 1-[[[4-(4-fluoro-2-methyl-1H-indol-5-yl)oxy-6-methoxyquinolin-7-yl]oxy]methyl]cyclopropylamine] | began to regain from day 7 | lower than those of the model group | lower than those of the model group | lower than those of the model group | improved in different degrees | lower than that of the model group | improved to a certain extent | improved to a certain extent | lower than that of the model group | lower than that of the model group | drug efficacy on the rat rheumatoid arthritis model (conclusion) [2]: significant drug efficacy; paw swelling degree compared with model group (CIA rats [3]): significantly reduced; lesion scores of the hind limb ankle joints vs. model group ([4]; day 4): lower than those of the model group; dose dependence of joint improvement (histopathology) (CIA rats [5]; 20 mg/kg and 10 mg/kg): improved in a dose-dependent manner; joint cavity stenosis compared with model group (CIA rats [5]; 20 and 10 mg/kg): significantly improved; joint inflammatory infiltration compared with model group (CIA rats [5]; 20 and 10 mg/kg): significantly reduced; synovium hyperplasia compared with model group (CIA rats [5]; 20 and 10 mg/kg): significantly relieved; inhibition of proliferation of human rheumatoid arthritis synovial cells ([7]; 0.5, 1, 2, 5 and 10 μM compared with drug-free group at 0 μM, 24 h and 48 h after dosing): significantly inhibit the proliferation of human rheumatoid arthritis synovial cells; concentration dependence of the inhibitory effect on synovial cell proliferation ([7]; 0.5-10 μM): enhanced along with the increase of the concentration of the drug; content of IL-1β in the serum of rats compared with model group (interleukin-1β (IL-1β)): could reduce; width of the hind limb ankle joints vs. model group ([9]; day 4): lower than that of the model group; thickness of the hind limb ankle joints vs. model group ([9]; day 4): lower than that of the model group; width of the hind limb ankle joints vs. model group ([9]; day 8): lower than that of the model group; content of TNF-α in the serum of rats compared with model group [10]: could reduce
C[C@@H]1C[C@H]2[C@@H]3CCC4=CC(=O)C=C[C@]4(C)[C@@]3(F)[C@@H](O)C[C@]2(C)[C@@]1(O)C(=O)COP(=O)(O)O [dexamethasone sodium phosphate, reference compound] | began to regain from day 7 | lower than those of the model group | lower than those of the model group | lower than those of the model group | significantly reduced | lower than that of the model group | improved to a certain extent | improved to a certain extent | lower than that of the model group | lower than that of the model group | weight of the rats, early stage (side effect) [1]: significant weight loss at the early stage
